Experimental data: ChEMBL document CHEMBL5154929, “Optimization of the Natural Product Calothrixin A to Discover Novel Dual Topoisomerase I and II Inhibitors with Improved Anticancer Activity” (J Med Chem, 2022)
Activity calls are given as the source filed them. No cut-off for these calls is given here.

Assays:
[1] = Microsomal stability in mouse liver microsomes assessed as half life measured at 2 ug/ml upto 60 mins in presence of NADPH generating system and UGT incubation system by phase II metabolic stability kit method; assay type: ADME, Microsome; settings: dose 2 µg/ml
A-375 [2] = assay: Inhibition of colony formation in human A-375 cells at 20 to 40 nM incubated for 48 hrs by crystal violet staining method; assay type: functional, cell-based; settings: dose 20-40 nM
A-375 [3] = assay: Induction of apoptosis in human A-375 cells assessed as increase in expression level of Bax measured after 24 hrs by Western blotting analysis; assay type: functional, cell-based; settings: dose 40-120 nM, DDE = dose-dependent effect
Calf thymus DNA [4] = assay: Binding affinity to calf thymus DNA assessed as intercalation by measuring hypochromic shift at 389 nm by […]; assay type: nucleic-acid assay; settings: Bos taurus
MCF7 = assay: Inhibition of colony formation in human MCF7 cells at 20 to 40 nM incubated for 48 hrs by crystal violet staining method; assay type: functional, cell-based; settings: dose 20-40 nM
A-375 [5] = assay: Induction of cell cycle arrest in human A-375 cells assessed as accumulation of cells at S phase at 80 nM incubated for 24 hrs by PI based flow cytometric analysis (RVB = 26.73%); assay type: functional
[6] = biological target: T1, DNA topoisomerase 1 (Homo sapiens) (UniProt P11387); assay: Inhibition of DNA topoisomerase I (unknown origin) relaxation activity at 100 uM incubated for 30 mins by chemiDoc system
T1 sequence (whole entry): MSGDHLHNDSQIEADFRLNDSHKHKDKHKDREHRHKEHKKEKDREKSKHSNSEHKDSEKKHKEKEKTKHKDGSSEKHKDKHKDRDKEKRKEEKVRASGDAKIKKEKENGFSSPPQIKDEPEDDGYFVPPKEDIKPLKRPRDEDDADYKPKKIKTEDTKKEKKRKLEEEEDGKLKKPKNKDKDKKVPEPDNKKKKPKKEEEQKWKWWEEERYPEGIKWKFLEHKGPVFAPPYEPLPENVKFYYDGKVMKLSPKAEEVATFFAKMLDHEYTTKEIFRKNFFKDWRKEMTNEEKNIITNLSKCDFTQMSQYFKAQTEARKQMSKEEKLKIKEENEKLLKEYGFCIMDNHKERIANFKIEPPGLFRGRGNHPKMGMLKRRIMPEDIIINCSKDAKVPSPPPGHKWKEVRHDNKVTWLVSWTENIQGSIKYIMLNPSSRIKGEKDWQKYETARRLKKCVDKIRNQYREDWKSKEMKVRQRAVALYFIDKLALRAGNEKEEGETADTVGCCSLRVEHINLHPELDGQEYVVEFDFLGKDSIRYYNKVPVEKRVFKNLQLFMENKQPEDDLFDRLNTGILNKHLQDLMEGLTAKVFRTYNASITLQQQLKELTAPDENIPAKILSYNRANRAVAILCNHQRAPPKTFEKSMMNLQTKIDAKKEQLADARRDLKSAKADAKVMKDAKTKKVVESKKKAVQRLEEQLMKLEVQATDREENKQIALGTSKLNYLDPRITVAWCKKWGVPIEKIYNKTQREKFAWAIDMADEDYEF

A-375 [7] = assay: Induction of apoptosis in human A-375 cells assessed as increase in expression level of Bad measured after 24 hrs by Western blotting analysis; assay type: functional, cell-based; settings: dose 40-120 nM, DDE = dose-dependent effect
[8] = biological target: DNA topoisomerase 2-alpha (Homo sapiens) (UniProt P11388); assay: Inhibition of human DNA topoisomerase II-alpha relaxation activity at 100 uM incubated for 30 mins by chemiDoc system
[9] = In vivo acute toxicity in Balb/C mouse assessed as tolerability at 50 mg/kg, iv administered once per 2 days for 7 days measured every other day; assay type: organism-based; settings: 168 h, time 7 day
HCT-116 [10] = assay: Antiproliferative activity against doxorubicin resistant human HCT-116 cells measured after 72 hrs by MTT assay; assay type: functional, cell-based; settings: HCT-116, 72 h
[11] = Aqueous solubility of the compound in saline equilibrating for 24 hrs by HPLC analysis; assay type: physicochemical
Calf thymus DNA [12] = assay: Binding affinity to calf thymus DNA assessed as intercalation by measuring hypochromic shift at 432 nm by […]; assay type: nucleic-acid assay; settings: Bos taurus
[13] = In vivo acute toxicity in Balb/C mouse assessed as pathological damage in spleen at 50 mg/kg, iv administered once per 2 days for 7 days measured 24 hrs after last dose by H and E staining method; assay type: organism-based; settings: 168 h, time 7 day
[14] = In vivo acute toxicity in Balb/C mouse assessed as pathological damage in liver at 50 mg/kg, iv administered once per 2 days for 7 days measured 24 hrs after last dose by H and E staining method; assay type: organism-based; settings: 168 h, time 7 day
[15] = Toxicity in BALB/c nude mouse xenografted with human A-375 cells assessed as tolerability treated after 7 days of tumor implantation on right flank subcutaneously at 20 mg/kg, iv administered once per 2 days for 14 days measured once every two days; assay type: organism-based; settings: in vivo, 336 h, time 14 day
[16] = In vivo acute toxicity in Balb/C mouse assessed as pathological damage in lung at 50 mg/kg, iv administered once per 2 days for 7 days measured 24 hrs after last dose by H and E staining method; assay type: organism-based; settings: 168 h, time 7 day
A-375 [17] = assay: Induction of cell cycle arrest in human A-375 cells assessed as accumulation of cells at G1 phase at 40 nM incubated for 24 hrs by PI based flow cytometric analysis (RVB = 52.94%); assay type: functional
[18] = biological target: T1, DNA topoisomerase 1 (Homo sapiens); assay: Poison activity at human topoisomerase I assessed as stabilization of enzyme-DNA cleavage complex by measuring nicked DNA formation at 100 uM after 60 mins by agarose gel electrophoresis method
HCT-116 [19] = assay: Cytotoxicity against human HCT-116 cells expressing high level of topoisomerase I/II measured after 72 hrs by MTT assay; assay type: functional, cell-based; settings: HCT-116, 72 h
A-375 [20] = assay: Induction of cell cycle arrest in human A-375 cells assessed as accumulation of cells at G1 phase at 20 nM incubated for 24 hrs by PI based flow cytometric analysis (RVB = 52.94%); assay type: functional
[21] = In vivo acute toxicity in Balb/C mouse assessed as effect on body weight at 50 mg/kg, iv administered once per 2 days for 7 days measured every other day; assay type: organism-based; settings: 168 h, time 7 day
A-375 [22] = assay: In vivo induction of apoptosis in human A-375 cells xenografted in BALB/c nude mouse assessed as […] treated after 7 days of tumor implantation on right flank subcutaneously at 10 to 20 mg/kg, iv administered once per 2 days for 14 days by measuring TUNEL positive cells under a light microscope; assay type: functional, organism-based; settings: dose 10-20 mg/kg, time 14.0 day
[23] = Microsomal stability in mouse liver microsomes assessed as clearance measured at 2 ug/ml upto 60 mins in presence of NADPH generating system and UGT incubation system by phase II metabolic stability kit method; assay type: ADME, Microsome; settings: dose 2 µg/ml, read-out: CLH
[24] = Cytotoxicity against human L02 cells measured after 72 hrs by MTT assay; assay type: toxicity, cell-based
A-375 [25] = assay: In vivo antitumor activity against human A-375 cells xenografted in BALB/c nude mouse assessed as decrease in tumor volume treated after 7 days of tumor implantation on right flank subcutaneously at 10 to 20 mg/kg, iv administered once per 2 days for 14 days measured once every two days; assay type: functional, organism-based; settings: dose 10-20 mg/kg, time 14.0 day
A-375 [26] = assay: Induction of apoptosis in human A-375 cells at 120 nM measured after 24 hrs by Annexin V-FITC and DAPI staining based flow cytometric analysis; assay type: functional
A-375 [27] = assay: Induction of cell cycle arrest in human A-375 cells assessed as accumulation of cells at S phase at 40 nM incubated for 24 hrs by PI based flow cytometric analysis (RVB = 26.73%); assay type: functional

Chain of DNA topoisomerase 2-alpha (Homo sapiens) (P11388 whole entry): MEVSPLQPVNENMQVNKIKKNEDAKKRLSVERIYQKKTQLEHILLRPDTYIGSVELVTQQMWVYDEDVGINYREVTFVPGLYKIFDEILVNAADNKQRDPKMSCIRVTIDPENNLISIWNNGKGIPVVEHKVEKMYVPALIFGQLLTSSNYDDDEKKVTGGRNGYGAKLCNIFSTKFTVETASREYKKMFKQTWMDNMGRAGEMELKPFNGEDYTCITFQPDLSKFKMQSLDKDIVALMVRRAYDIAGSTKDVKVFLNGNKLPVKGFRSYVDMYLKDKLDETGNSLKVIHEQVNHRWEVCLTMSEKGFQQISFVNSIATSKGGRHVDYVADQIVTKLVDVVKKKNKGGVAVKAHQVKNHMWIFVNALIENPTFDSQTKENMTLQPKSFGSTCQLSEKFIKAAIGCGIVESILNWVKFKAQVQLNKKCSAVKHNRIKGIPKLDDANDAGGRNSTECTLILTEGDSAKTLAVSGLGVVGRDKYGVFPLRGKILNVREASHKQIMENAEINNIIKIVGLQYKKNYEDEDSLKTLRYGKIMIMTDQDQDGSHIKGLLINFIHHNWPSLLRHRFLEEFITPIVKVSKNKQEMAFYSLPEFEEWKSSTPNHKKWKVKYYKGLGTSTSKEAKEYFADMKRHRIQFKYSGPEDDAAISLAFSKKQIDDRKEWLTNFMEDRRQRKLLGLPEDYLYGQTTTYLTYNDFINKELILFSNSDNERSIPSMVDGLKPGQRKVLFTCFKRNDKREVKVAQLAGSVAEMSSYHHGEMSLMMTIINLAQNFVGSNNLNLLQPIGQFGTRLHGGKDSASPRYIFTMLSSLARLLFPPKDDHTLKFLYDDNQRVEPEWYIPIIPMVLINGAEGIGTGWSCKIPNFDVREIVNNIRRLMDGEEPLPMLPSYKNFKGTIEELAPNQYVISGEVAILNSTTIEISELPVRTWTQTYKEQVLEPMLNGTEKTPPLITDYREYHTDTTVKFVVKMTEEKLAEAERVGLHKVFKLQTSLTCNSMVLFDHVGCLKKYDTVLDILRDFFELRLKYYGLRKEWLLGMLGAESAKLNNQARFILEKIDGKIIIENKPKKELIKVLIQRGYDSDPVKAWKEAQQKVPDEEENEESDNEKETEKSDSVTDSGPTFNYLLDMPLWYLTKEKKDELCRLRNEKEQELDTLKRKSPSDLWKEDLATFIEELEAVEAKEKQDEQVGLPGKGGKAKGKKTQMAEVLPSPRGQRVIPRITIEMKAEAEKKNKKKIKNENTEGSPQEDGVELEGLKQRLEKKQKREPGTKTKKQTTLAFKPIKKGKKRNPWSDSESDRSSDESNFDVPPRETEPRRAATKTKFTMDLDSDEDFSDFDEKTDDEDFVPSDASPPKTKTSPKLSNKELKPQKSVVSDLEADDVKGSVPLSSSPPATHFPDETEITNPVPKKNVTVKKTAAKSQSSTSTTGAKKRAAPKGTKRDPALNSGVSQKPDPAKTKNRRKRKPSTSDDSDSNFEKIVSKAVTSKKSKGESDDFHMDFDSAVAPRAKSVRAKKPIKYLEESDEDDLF

For `O=C1c2c[n+]([O-])c3ccccc3c2C(=O)c2c1c1ccccc1n2Cc1cn([C@@H]2C[C@H](O)[C@@H](CO)O2)nn1`, the half-life at 2 ug/ml [1] was 40 min, the inhibition (A-375 [2]) was “Active” and the Activity (A-375 [3]) was “Dde”. For the same compound, the Activity (Calf thymus DNA [4]) was 29%, the inhibition (MCF7) was “Active” and the Activity (A-375 [5]) was 58.13%. For the same compound, the inhibition [6] was “Active”, the Activity (A-375 [7]) was “Dde” and the inhibition [8] was “Active”. For the same compound, the Activity [9] was “Non-Toxic”, the IC50 (HCT-116 [10]) was 70 nM and the solubility at 24 h [11] was over 5000 µg/mL. For the same compound, the Activity (Calf thymus DNA [12]) was 32%, the Activity [13] was “Non-Toxic” and the Activity [14] was “Non-Toxic”. The Activity [15] was “Non-Toxic”, the Activity [16] was “Non-Toxic” and the Activity (A-375 [17]) was 28.94%. For the same compound, the Activity [18] was “Active”, the IC50 (HCT-116 [19]) was 50 nM and the Activity (A-375 [20]) was 32.45%. The Activity [21] was “Non-Toxic”, the Activity (A-375 [22]) was “Active” and the microsomal CLint at 2 ug/ml [23] was 35 µL/min/mg. The IC50 at 72 h [24] was 630 nM, the Activity (A-375 [25]) was “Active” and the Activity (A-375 [26]) was 55.94%. It also gave an Activity (A-375 [27]) of 43.2%.
